Source: US12180139B2, “Method for preparing aminoalkanoic acid derivative containing biphenyl group” (AMTIXBIO CO., LTD., priority 2019, dated 2024)

Legend:
[1] = system: interleukin 6 (IL-6); conditions: RAW264.7 cells, compound 8 μg/mL 1 hour, then LPS 1 μg/mL 24 hours; relative to LPS without compound
Procedure: The anti-inflammatory effects of the compounds of the present invention were evaluated using RAW264.7 cells which were stimulated to secrete interleukin 6 (IL-6). Specifically, RAW264.7 cells (obtained from Korean Cell Line Bank), mouse macrophages, were inoculated into a 12-well plate at 5×10^5 cells/well and incubated at 37° C. for 16 to 24 hours. The compounds of the present invention were added to the cell culture medium containing RAW264.7 cells incubated as above at a final concentration of 0 or 8 μg/ ? , and then incubated at 37° C. for 1 hour. Next, lipopolysaccharide (LPS, Sigma-Aldrich, USA) was further added to the medium at a final concentration of 1 μg/ ? , and the medium was incubated at 37° C. for 24 hours to induce IL-6 expression. Thereafter, IL-6 levels produced by the RAW264.7 cells were measured using an ELISA kit (Komabiotech Inc. Korea) according to the manufacturer's instructions. In Table 9, IL6 levels were expressed as a relative percentage (%) between LPS-induced IL6 levels after the treatment with the compound of the present invention and LPS-induced IL6 levels without the treatment of the compound of the present invention.

[2] = system: C. neoformans; conditions: RPMI1640 broth, 35° C., 72 hours, visual reading; expressed as a range value
[3] = system: C. glabrata; conditions: RPMI1640 broth, 35° C., 48 hours, visual reading; expressed as a range value
[4] = system: C. albicans; conditions: RPMI1640 broth, 35° C., 48 hours, visual reading; expressed as a range value
Procedure: (§3) An in vitro antifungal susceptibility test was performed in accordance with the US Clinical and Laboratory Standards Institute (CLSI) guidelines to measure the degree of antifungal activity of the compounds synthesized in the Preparation Examples against opportunistic pathogenic fungi. […] The MIC value (μg/ ? ) is expressed as a range value. Specifically, Candida species and Cryptococcus neoformans were incubated in a Sabouraud dextrose agar (SDA) (Sigma-Aldrich) solid medium for 24 and 48 hours, respectively to obtain single colonies. The obtained single colonies were suspended in 0.85% physiological saline to prepare fungal cell suspension (1 to 5×10^6 cells/ ? ). Fungal cells 2000-fold diluted in RPMI1640 broth (Sigma-Aldrich) were seeded on 96-well plates (5×10^2 to 2.5×10^3 cells/ ? , 195 ? /well). Serial two-fold dilutions (128, 64, 32, 16, 8, 4, 2, 1, and 0.5 μg/ ? ) of compounds were prepared by diluting the compounds synthesized according to the above preparation examples. Then, 5 ? from each dilution was added to the well of the 96-well plate containing fungal cell suspension to give a final suspension of 200 ? per well. […] As a positive control, amphotericin B (AMB), which is highly toxic to the human body but is known as a representative antifungal agent, was used.

[5] = system: A. fumigatus; conditions: visual reading; expressed as a range value
Procedure: as §3

[6] = system: MRSA; test: Antibacterial MIC test (CLSI); format: cell-based, Methicillin-resistant Staphylococcus aureus; conditions: MHB liquid medium, 37° C., 24 hours
Procedure: (§1) The MIC test was conducted in accordance CLSI guidelines. […] As a positive control, Nofloxacin and Vancomycin were used.

[7] = system: S. epidermidis (+); conditions: MHB liquid medium, 37° C., 24 hours
Procedure: (§2) The antibacterial activities against Gram-positive bacteria, Gram-negative bacteria or multi-drug resistant bacteria were evaluated for the compounds of the present invention. The MIC test was conducted in accordance CLSI guidelines. E. coli(−), P. aeruginosa(−), and S. enterica(−) were used as Gram-negative bacteria, B. cereus(+), B. subtilis(+), B. coagulans(+), L. monocytogenes(+), M. luteus(+), P. acnes(+), S. epidermidis(+), and S. aureus(+) were used as Gram-positive bacteria. Methicillin-resistant Staphylococcus aureus (MRSA) was used as multi-drug resistant bacteria. The bacterial cells were incubated until the OD600 of the single colonies reached 0.1. […] Subsequently, bacterial cells were incubated at 37° C. for 24 hours, and then the MICs (μg/ ? ) were determined by visual reading and optical density detection at 600 nm (OD600). As a positive control, Nofloxacin and Vancomycin were used.

[8] = system: S. aureus (+); conditions: MHB liquid medium, 37° C., 24 hours
Procedure: as §2

[9] = system: B. subtilis (+); test: Antibacterial MIC test (CLSI); format: cell-based; conditions: MHB liquid medium, 37° C., 24 hours
Procedure: as §1

[10] = system: B. cereus (+); test: Antibacterial MIC test (CLSI); format: cell-based; conditions: MHB liquid medium, 37° C., 24 hours
Procedure: as §1

[11] = system: E. coli (−); test: Antibacterial MIC test (CLSI); format: cell-based; conditions: MHB liquid medium, 37° C., 24 hours
Procedure: as §1

[12] = system: M. luteus (+); test: Antibacterial MIC test (CLSI); format: cell-based; conditions: MHB liquid medium, 37° C., 24 hours
Procedure: as §1

[13] = system: S. aureus enterica (−); test: Antibacterial MIC test (CLSI); format: cell-based; conditions: MHB liquid medium, 37° C., 24 hours
Procedure: as §1

[14] = system: P. acnes (+); test: Antibacterial MIC test (CLSI); format: cell-based; conditions: MHB liquid medium, 37° C., 24 hours
Procedure: as §1

[15] = system: L. monocytogenes (+); test: Antibacterial MIC test (CLSI); format: cell-based; conditions: MHB liquid medium, 37° C., 24 hours
Procedure: as §1

[16] = system: B. coagulans (+); test: Antibacterial MIC test (CLSI); format: cell-based; conditions: MHB liquid medium, 37° C., 24 hours
Procedure: as §1

SMILES	Relative IL-6 levels (%) [1] [%]	MIC (μg/mL) C. neoformans [2]	MIC (μg/mL) C. glabrata [3]	MIC (μg/mL) C. albicans [4]	MIC (μg/mL) A. fumigatus [5]	MIC MRSA [6] [µg/mL]	MIC S. epidermidis (+) [7] [µg/mL]	MIC S. aureus (+) [8] [µg/mL]	MIC B. subtilis (+) [9] [µg/mL]	MIC B. cereus (+) [10] [µg/mL]	MIC E. coli (−) [11] [µg/mL]	MIC M. luteus (+) [12] [µg/mL]	MIC S. aureus enterica (−) [13] [µg/mL]	MIC P. acnes (+) [14] [µg/mL]	MIC L. monocytogenes (+) [15] [µg/mL]	MIC B. coagulans (+) [16] [µg/mL]
CCCC(C(=O)Nc1ccc(-c2ccc(Cl)c(Cl)c2)cc1)N(C)C (racemic) [Compound 36, (R)/(S)-N-(3′,4′-dichloro-[1,1′-biphenyl]-4-yl)-2-(dimethylamino)pentanamide]	9	2~8 μg/mL	4~16 μg/mL	4~16 μg/mL	4~16 μg/mL											
CCCC(C(=O)NCc1ccc(-c2ccc(Cl)c(Cl)c2)cc1)N(C)C (racemic) [Compound 53, (R)/(S)-N-((3′,4′-dichloro-[1,1′-biphenyl]-4-yl)methyl)-2-(dimethylamino)pentanamide]	5	2~8 μg/mL	8~32 μg/mL	8~32 μg/mL	8~32 μg/mL											
CCCCC(N)C(=O)NCc1ccc(-c2ccc(OC(F)(F)F)cc2)cc1.Cl (racemic) [Compound 50, (R)/(S)-2-amino-N-((4′-(trifluoromethoxy)-[1,1′-biphenyl]-4-yl)methyl)hexanamide hydrochloride]	68	4~16 μg/mL	4~16 μg/mL	4~16 μg/mL	4~16 μg/mL											
CCCC(N)C(=O)NCCc1ccc(-c2ccc(F)c(F)c2)cc1.Cl (racemic) [Compound 82, (R)/(S)-2-amino-N-(2-(3′,4′-difluoro-[1,1′-biphenyl]-4-yl)ethyl)pentanamide hydrochloride]	3	4~16 μg/mL	4~16 μg/mL	4~16 μg/mL	4~16 μg/mL											
CCCC(NC)C(=O)NCCc1ccc(-c2ccc(C(F)(F)F)cc2)cc1.Cl (racemic) [Compound 87, (R)/(S)-2-(methylamino)-N-(2-(4′-(trifluoromethyl)-[1,1′-biphenyl]-4-yl)ethyl)pentanamide hydrochloride]	24	4~16 μg/mL	4~16 μg/mL	4~16 μg/mL	4~16 μg/mL											
CCCC(N)C(=O)NCc1ccc(-c2ccc(Cl)c(Cl)c2)cc1.Cl (racemic) [Compound 45, (R)/(S)-2-amino-N-((3′,4′-dichloro-[1,1′-biphenyl]-4-yl)methyl)pentanamide hydrochloride]	3	2~8 μg/mL	8~32 μg/mL	8~32 μg/mL	8~32 μg/mL											
CCCCC(N)C(=O)NCc1ccc(-c2ccc(C(F)(F)F)cc2)cc1.Cl (racemic) [Compound 48, (R)/(S)-2-amino-N-((4′-(trifluoromethyl)-[1,1′-biphenyl]-4-yl)methyl)hexanamide hydrochloride]	67	4~16 μg/mL	4~16 μg/mL	4~16 μg/mL	4~16 μg/mL											
CCCC(N)C(=O)NCc1ccc(-c2ccc(OC(F)(F)F)cc2)cc1.Cl (racemic) [Compound 49, (R)/(S)-2-amino-N-((4′-(trifluoromethoxy)-[1,1′-biphenyl]-4-yl)methyl)pentanamide hydrochloride]	50	4~16 μg/mL	8~32 μg/mL	8~32 μg/mL	8~32 μg/mL											
CCCC(N)C(=O)NCc1ccc(-c2ccc(C(F)(F)F)cc2)cc1.Cl (racemic) [Compound 47, (R)/(S)-2-amino-N-((4′-(trifluoromethyl)-[1,1′-biphenyl]-4-yl)methyl)pentanamide hydrochloride]	12	4~16 μg/mL	8~32 μg/mL	8~32 μg/mL	8~32 μg/mL											
CCCC(N)C(=O)Nc1ccc(-c2ccc(OC(F)(F)F)cc2)cc1.Cl (racemic) [Compound 32, (R)/(S)-2-amino-N-(4′-(trifluoromethoxy)-[1,1′-biphenyl]-4-yl)pentanamide hydrochloride]	16	2~8 μg/mL	4~16 μg/mL	4~16 μg/mL	4~16 μg/mL											
CCCC(N)C(=O)NCCc1ccc(-c2ccc(OC(F)(F)F)cc2)cc1.Cl (racemic) [Compound 80, (R)/(S)-2-amino-N-(2-(4′-(trifluoromethoxy)-[1,1′-biphenyl]-4-yl)ethyl)pentanamide hydrochloride]	6	2~8 μg/mL	4~16 μg/mL	4~16 μg/mL	4~16 μg/mL											
CCC(N)C(=O)NCCc1ccc(-c2ccc(Cl)c(Cl)c2)cc1.Cl (racemic) [Compound 73, (R)/(S)-2-amino-N-(2-(3′,4′-dichloro-[1,1′-biphenyl]-4-yl)ethyl)butanamide hydrochloride]		2~8 μg/mL	8~32 μg/mL	8~32 μg/mL	8~32 μg/mL	8	8	8	8	32	8	8	16	8	8	<4
CCC(NC)C(=O)NCCc1ccc(-c2ccc(C(F)(F)F)cc2)cc1.Cl (racemic) [Compound 86, (R)/(S)-2-(methylamino)-N-(2-(4′-(trifluoromethyl)-[1,1′-biphenyl]-4-yl)ethyl)butanamide hydrochloride]		8~32 μg/mL	16~64 μg/mL	16~64 μg/mL	16~64 μg/mL	32	16	32	32	64	32	16	64	16	16	<4
CCC(NC)C(=O)NCCc1ccc(-c2ccc(OC(F)(F)F)cc2)cc1.Cl (racemic) [Compound 89, (R)/(S)-2-(methylamino)-N-(2-(4′-(trifluoromethoxy)-[1,1′-biphenyl]-4-yl)ethyl)butanamide hydrochloride]		8~32 μg/mL	8~32 μg/mL	8~32 μg/mL	8~32 μg/mL	32	16	32	16	>64	16	16	32	16	16	<4
